Counter-ions that a name gives are not always drawn. Like-named read-outs stand apart in the source and are kept apart here.

One experiment addresses T1, β-lactamase P99 (Enterobacter cloacae, UniProt P05364).
T1 construct: The β-lactamases are isolated from bacterial strains resistant to penicillins and to cephalosporins; endogenous in cells; host or cells: Enterobacter cloacae 293HT6, soluble fraction of French-press lysate
Briefly: Inhibitory activity for β-lactamases (nitrocefin hydrolysis). It is filed as biochemical. How it is done: (§1) II/Inhibitory Activity for β-Lactamases
(§2) A. Preparation of the β-Lactamases Tem-1 and P99
(§3) The β-lactamases are isolated from bacterial strains resistant to penicillins and to cephalosporins (Tem1 and P99 are produced respectively by E. coli 250HT21 and E. Cloacae 293HT6).
(§4) The bacteria are cultured in 37 g/l brain-heart broth (DIFCO) at 37° C. They are harvested in the exponential phase, cooled and centrifuged. The bacterial pellets are taken up in 50 mM sodium phosphate buffer, pH 7.0, and are again centrifuged. The bacteria are taken up in two volumes of the same buffer and lyzed using a French press maintained at 4° C. After centrifuging for 1 h at 100 000 g at 4° C., the supernatants comprising the soluble fraction of the bacterial extracts are recovered and frozen at −80° C.
(§5) B. Determination of the β-Lactamase Activity
(§6) The method uses nitrocefin (Oxoid), a chromogenic cephalosporin, the product of hydrolysis by β-lactamases of which is red and absorbed at 485 nm, as substrate. The β-lactamase activity is determined kinetically by the measurement, on a plate spectrophotometer (Spectra Max Plus from Molecular Devices), of the variation in absorbance at 485 nm resulting from the hydrolysis of the substrate. The experiments are carried out at 37° C. The amount of enzyme was standardized and the measurements are carried out at the initial rate.
(§7) C. Determination of the Inhibitory Activity for β-Lactamases
(§8) Two measurements are carried out, without preincubation and with preincubation of the enzyme and of the inhibitor (5 min), in order to test the irreversibility of the reaction. The products are tested at 6 or 8 concentrations in duplicate. The reaction mixture comprises 100 μM nitrocefin and 50 mM sodium phosphate buffer, pH 7.0.
(§9) D. Calculations of the IC50 Values
(§10) The rates of hydrolysis are measured with and without inhibitor. The concentration of inhibitor which inhibits by 50% the reaction for the hydrolysis of nitrocefin by the enzyme is determined (IC50). The processing of the data is carried out using GraFit software (Erathycus Software).

Another experiment concerns the target T2, β-lactamase Tem-1 (Escherichia coli, UniProt P62593).
T2 construct: The β-lactamases are isolated from bacterial strains resistant to penicillins and to cephalosporins; endogenous in cells; host or cells: E. coli 250HT21, soluble fraction of French-press lysate
The experiment is described as above. Format: biochemical, E. coli 250HT21. How it is done:
as §1, §2, §3, §4, §5, §6, §7, §8, §9, §10

Where [1] appears, read: after 5 min of preincubation with the enzyme, 100 μM nitrocefin, 50 mM sodium phosphate buffer pH 7.0, 37° C., read-out: IC50 nM/P99.
The mark [2] stands for this setting: after 5 min of preincubation with the enzyme, 100 μM nitrocefin, 50 mM sodium phosphate buffer pH 7.0, 37° C., read-out: IC50 nM/TEM1.

T1 sequence (P05364 21-381): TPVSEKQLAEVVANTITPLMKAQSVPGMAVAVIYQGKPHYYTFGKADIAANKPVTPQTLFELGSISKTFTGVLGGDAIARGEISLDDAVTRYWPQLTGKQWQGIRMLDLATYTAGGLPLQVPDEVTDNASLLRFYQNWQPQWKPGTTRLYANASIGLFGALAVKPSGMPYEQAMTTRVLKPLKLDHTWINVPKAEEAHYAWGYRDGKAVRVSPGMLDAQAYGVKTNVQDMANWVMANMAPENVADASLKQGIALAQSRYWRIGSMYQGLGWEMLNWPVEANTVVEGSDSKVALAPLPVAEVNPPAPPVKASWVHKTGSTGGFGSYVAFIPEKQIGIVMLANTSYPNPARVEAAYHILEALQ
T2 sequence (P62593 24-286 limits assumed): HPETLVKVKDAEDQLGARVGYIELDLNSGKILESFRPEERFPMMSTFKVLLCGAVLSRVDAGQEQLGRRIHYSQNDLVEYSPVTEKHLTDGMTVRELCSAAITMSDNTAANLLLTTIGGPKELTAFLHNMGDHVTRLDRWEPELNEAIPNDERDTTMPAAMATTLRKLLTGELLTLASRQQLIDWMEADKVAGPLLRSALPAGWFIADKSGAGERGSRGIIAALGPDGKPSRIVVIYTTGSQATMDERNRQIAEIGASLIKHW

In the case of `CS(=O)(=O)N1c2ccccc2C2CN1C(=O)N2OCC(=O)O` (stereo not shown) [Example 5, N-(1-Methylethyl)-2-propanaminium salt of [[1,5-dihydro-1-(methylsulfonyl)-3-oxo-2,5-methano-2H-1,2,4-benzotriazepin-4(3H)-yl]oxy]acetic acid], the IC50 on β-lactamase P99 was 460000 nM; at β-lactamase Tem-1 it was 570000 nM.
With `O=C(O)CON1C(=O)N2CC1c1ccccc1N2C(=O)NC(=O)c1ccccc1` (stereo not shown) [Example 7, N-(1-Methylethyl)-2-propanaminium salt of [[1-[(benzoylamino)carbonyl]-1,5-dihydro-3-oxo-2,5-methano-2H-1,2,4-benzotriazepin-4(3H)-yl]oxy]acetic acid], the IC50 is 63000 nM on β-lactamase P99 and 110000 nM at β-lactamase Tem-1.
On to `O=C(O)CON1C(=O)N2CC1c1ccccc1N2C(=O)NS(=O)(=O)c1ccccc1` (stereo not shown) [Example 9, Bis[N-(1-methylethyl)-2-propanaminium] salt of [[1,5-dihydro-3-oxo-1-[[(phenylsulfonyl)amino]carbonyl]-2,5-methano-2H-1,2,4-benzotriazepin-4(3H)-yl]oxy]acetic acid], for which the IC50 against β-lactamase P99 came to 180000 nM; against β-lactamase Tem-1, 160000 nM.
Regarding `O=C(O)CON1C(=O)N2CC1c1ccccc1N2` (stereo not shown) [Example 11, N-(1-Methylethyl)-2-propanaminium salt of [(1,5-dihydro-3-oxo-2,5-methano-2H-1,2,4-benzotriazepin-4(3H)-yl)oxy]acetate acid], the IC50 against β-lactamase P99 is 15000 nM; at β-lactamase Tem-1 it was 14000 nM.
Consider `C=CCON1C(=O)N2CC1c1ccccc1N2Cc1cccnc1` (stereo not shown) [Example 14, 4,5-Dihydro-4-(2-propenyloxy)-1-(3-pyridinylmethyl)-2,5-methano-2H-1,2,4-benzotriazepin-3(1H)-one], for which the IC50 came out at 17000 nM on β-lactamase P99 (setting [1]) and 26000 nM at β-lactamase Tem-1 (setting [2]).
Regarding `C=CCON1C(=O)N2CC1c1ccccc1N2C(=O)NS(=O)(=O)c1ccccc1` (stereo not shown) [Example 15, 4,5-Dihydro-3-oxo-N-(phenylsulfonyl)-4-(2-propenyloxy)-2,5-methano-2H-1,2,4-benzotriazepin-1(3H)-carboxamide], the IC50 on β-lactamase P99 (setting [1]) came to 110000 nM; at β-lactamase Tem-1 (setting [2]), 450000 nM.
`CCOC(=O)CN1c2ccccc2C2CN1C(=O)N2OS(=O)(=O)O` (stereo not shown) [Example 27, Sodium Salt of Ethyl 4,5-dihydro-3-oxo-4-(sulfoxy)-2,5-methano-2-H-1,2,4-benzotriazepine-1(3H)-acetate]: the IC50 on β-lactamase P99 (setting [1]) turned out to be 530 nM; at β-lactamase Tem-1 (setting [2]), 7500 nM.
For `CN1c2ccccc2C2CN1C(=O)N2OS(=O)(=O)O` (stereo not shown) [Example 28, Sodium salt of 4,5-dihydro-1-methyl-4-(sulfooxy)-2,5-methano-2H-1,2,4-benzotriazepin-3(1H)-one], in that order: 37000 nM and 12000 nM.
